In US9382254B2, “Compounds and pharmaceutical compositions thereof for the treatment of cystic fibrosis” (Galapagos NV, priority 2013, dated 2016):

Columns and labels:
Format in all cases: cell-based
CFTR G551D mutant = target: T1, CFTR G551D mutant (Homo sapiens, UniProt P13569, G551D); assay: YFP-halide influx assay for the CFTR-G551D mutation; settings: HEK293 cells, forskolin 10.67 μM
T1 construct: expressed in transfected cells; host or cells: HEK293 (reverse transfection with plasmid)
In short: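 Channel opening potentiation measured as 1−F/F0, where F is YFP fluorescence 7 s after iodide injection and F0 before; EC50 taken from concentration plot. Cells: HEK293 transiently expressing CFTR G551D plus halide-sensitive YFP (H148Q, I152L, F47L), 24 h at 37 °C, 5% CO2.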

CFTR ΔF508 mutant [1] = target: T2, CFTR ΔF508 mutant (Homo sapiens, UniProt P13569, DEL508-508); assay: YFP-halide influx assay for the CFTR-ΔF508 mutation, PBS buffer (96 well); settings: CFBE41o- cells, forskolin 10.67 μM
T2 construct: expressed in transfected cells; host or cells: CFBE41o- (adenoviral transduction)
Description: The YFP halide influx assay measures the functionality of the cystic fibrosis Transmembrane Conductance regulator (CFTR) channels in the cystic fibrosis bronchial epithelium cell line CFBE41o-. The assay is used to evaluate the capacity of compounds to increase the open probability of existing CFTR channels in the membrane. It makes use of the observation that the yellow fluorescent protein (YFP) variant YFP H148Q, I152L has its fluorescence substantially quenched by halide ions like Cl^− and I^−. (Galietta, Haggie, & Verkman, 2001) (Nagai, et al., 2002)
For this purpose, CFBE41o-cells are seeded in 96 well plates (6000 CFBE cells/well). One day after seeding, the CFBE cells are transduced with adenoviral vectors that direct the expression of the CFTR ΔF508 mutant and of the YFP reporter. Cells are incubated at 27° C., 5% CO2 for 24 hours so as to allow for the proper folding and migration to the membrane of the CFTR channel or treated with a CFTR modulator during 24 hours at 37° C.
The I^− induced quenching of fluorescence is recorded immediately after injection of I^− for 7 seconds. The capacity of a compound to increase the channel opening is directly correlated with the decrease in fluorescence, and is expressed as (1-(fluorescence after 7 seconds (F)/fluorescence before injection (F0))) and an EC50 can be derived from a (1-F/F0) vs compound concentration plot.

CFTR ΔF508 mutant [2] = target: T2, CFTR ΔF508 mutant; assay: YFP-halide influx assay for the CFTR-ΔF508 mutation (384 well, FDSS/μCell); settings: CFBE41o- cells, CFTR-ΔF508, 1×D-PBS, fluorescence after 36 seconds
In short: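 Potentiator read-out as 1−F/F0, F taken 36 s after iodide addition, EC50 fitted against compound concentration. Cells: CFBE41o- expressing ΔF508 CFTR plus halide-sensitive YFP via adenovirus, rescued by 27 °C for 24 h or 24 h modulator at 37 °C.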

T1 sequence (P13569 whole entry G551D): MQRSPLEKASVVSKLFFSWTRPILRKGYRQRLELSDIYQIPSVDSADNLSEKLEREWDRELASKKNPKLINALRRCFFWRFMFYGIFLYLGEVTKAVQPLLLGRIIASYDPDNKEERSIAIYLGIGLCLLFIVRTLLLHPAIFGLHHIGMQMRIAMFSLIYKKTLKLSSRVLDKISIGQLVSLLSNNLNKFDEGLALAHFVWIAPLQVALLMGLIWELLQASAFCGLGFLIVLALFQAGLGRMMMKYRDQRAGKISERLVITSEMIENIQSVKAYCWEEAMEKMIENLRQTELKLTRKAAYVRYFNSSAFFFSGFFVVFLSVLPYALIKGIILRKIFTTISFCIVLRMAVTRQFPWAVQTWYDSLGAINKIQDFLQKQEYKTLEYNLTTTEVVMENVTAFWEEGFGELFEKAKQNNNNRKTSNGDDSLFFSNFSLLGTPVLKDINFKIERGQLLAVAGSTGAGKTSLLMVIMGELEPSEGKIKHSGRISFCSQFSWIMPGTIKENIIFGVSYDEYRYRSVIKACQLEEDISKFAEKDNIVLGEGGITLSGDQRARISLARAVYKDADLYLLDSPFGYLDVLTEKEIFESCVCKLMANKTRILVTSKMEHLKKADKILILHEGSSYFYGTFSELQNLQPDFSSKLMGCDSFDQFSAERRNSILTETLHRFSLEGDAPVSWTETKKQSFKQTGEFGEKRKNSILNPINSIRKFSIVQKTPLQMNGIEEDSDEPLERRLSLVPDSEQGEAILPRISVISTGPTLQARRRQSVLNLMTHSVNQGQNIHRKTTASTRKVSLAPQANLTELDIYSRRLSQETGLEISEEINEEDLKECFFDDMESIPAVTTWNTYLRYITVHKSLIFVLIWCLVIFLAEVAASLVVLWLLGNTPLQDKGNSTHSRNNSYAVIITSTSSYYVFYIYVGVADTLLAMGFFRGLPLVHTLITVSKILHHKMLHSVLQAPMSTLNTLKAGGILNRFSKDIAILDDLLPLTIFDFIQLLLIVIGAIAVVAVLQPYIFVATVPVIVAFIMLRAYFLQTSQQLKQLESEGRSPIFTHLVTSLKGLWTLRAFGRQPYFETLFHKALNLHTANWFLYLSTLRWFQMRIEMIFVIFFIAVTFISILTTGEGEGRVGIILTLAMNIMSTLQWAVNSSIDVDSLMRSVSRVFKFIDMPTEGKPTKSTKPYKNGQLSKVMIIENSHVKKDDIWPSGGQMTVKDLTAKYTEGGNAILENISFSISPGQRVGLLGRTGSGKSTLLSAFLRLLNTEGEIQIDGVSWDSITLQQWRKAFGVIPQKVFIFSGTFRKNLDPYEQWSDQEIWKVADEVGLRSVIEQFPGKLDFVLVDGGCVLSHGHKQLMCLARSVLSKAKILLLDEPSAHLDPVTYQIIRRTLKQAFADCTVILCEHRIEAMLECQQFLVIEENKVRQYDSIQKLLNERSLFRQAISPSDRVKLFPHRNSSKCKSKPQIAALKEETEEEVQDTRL
T2 sequence (P13569 with tags, fused parts or gaps DEL508-508): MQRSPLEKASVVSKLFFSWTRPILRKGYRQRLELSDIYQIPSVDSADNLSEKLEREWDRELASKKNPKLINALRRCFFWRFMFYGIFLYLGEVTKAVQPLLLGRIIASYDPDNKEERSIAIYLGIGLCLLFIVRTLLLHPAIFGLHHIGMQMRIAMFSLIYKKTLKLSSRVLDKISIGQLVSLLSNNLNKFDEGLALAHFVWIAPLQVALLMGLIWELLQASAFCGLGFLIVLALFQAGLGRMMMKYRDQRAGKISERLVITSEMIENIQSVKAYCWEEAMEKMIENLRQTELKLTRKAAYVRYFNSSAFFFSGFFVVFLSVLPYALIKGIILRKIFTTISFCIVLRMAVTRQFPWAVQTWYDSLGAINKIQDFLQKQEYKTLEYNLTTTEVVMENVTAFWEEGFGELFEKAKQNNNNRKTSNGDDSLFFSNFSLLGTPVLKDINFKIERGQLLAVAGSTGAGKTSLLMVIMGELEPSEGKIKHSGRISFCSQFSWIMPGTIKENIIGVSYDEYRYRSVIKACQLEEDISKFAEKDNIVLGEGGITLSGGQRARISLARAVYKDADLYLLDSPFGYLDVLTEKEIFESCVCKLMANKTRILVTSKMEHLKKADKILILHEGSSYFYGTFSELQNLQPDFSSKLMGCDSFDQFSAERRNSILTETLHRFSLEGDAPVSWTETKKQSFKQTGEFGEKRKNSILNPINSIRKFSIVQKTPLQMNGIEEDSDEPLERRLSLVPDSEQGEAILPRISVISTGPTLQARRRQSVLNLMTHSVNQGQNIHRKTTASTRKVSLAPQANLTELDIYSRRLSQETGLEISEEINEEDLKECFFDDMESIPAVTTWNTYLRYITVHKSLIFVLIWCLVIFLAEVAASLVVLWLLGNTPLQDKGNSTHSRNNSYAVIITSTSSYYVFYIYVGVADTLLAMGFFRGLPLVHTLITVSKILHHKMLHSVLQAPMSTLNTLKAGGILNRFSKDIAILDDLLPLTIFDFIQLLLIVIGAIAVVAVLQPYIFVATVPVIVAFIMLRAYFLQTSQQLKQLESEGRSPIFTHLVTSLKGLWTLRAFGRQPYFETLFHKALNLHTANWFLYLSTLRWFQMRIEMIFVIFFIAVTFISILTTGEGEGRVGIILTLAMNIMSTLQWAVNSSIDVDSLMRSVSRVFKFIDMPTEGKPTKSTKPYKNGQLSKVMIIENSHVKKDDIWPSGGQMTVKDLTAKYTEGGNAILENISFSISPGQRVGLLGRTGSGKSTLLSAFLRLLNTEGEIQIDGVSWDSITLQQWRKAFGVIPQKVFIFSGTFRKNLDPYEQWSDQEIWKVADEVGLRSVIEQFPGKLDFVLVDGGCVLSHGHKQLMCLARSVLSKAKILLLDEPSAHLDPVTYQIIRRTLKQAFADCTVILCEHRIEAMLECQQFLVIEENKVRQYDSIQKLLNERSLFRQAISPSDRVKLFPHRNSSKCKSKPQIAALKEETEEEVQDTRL

Row | SMILES | EC50 (CFTR G551D mutant) [nM] | EC50 (CFTR ΔF508 mutant [1]) [nM] | EC50 (CFTR G551D mutant; class symbol) [nM] | EC50 (CFTR ΔF508 mutant [2]) [nM]
1 | CN(C1CC1)S(=O)(=O)c1cc(C(N)=O)c(NC(=O)C2(O)CC2)s1 [Compound 232, 5-(N-cyclopropyl-N-methylsulfamoyl)-2-(1-hydroxycyclopropanecarboxamido) thiophene-3-carboxamide] | 1050 | 128 |  | 
2 | CC(C)N(C(C)C)S(=O)(=O)c1cc(C(N)=O)c(NC(=O)C2(O)CC2)s1 [Compound 233, 5-(N,N-diisopropylsulfamoyl)-2-(1-hydroxycyclopropanecarboxamido) thiophene-3-carboxamide] |  | 130 | > 1000 | 
3 | COc1ccc(CN(C)S(=O)(=O)c2cc(C(N)=O)c(NC(=O)C3(O)CC3)s2)cc1 [Compound 235, 2-(1-hydroxycyclopropanecarboxamido)-5-(N-(4-methoxybenzyl)-N-methylsulfamoyl) thiophene-3-carboxamide] |  | 46.8 |  | 76.6
4 | CC(C)N(c1ccc(F)cc1)S(=O)(=O)c1cc(C(N)=O)c(NC(=O)C2(O)CC2)s1 [Compound 237, 5-(N-(4-fluorophenyl)-N-isopropylsulfamoyl)-2-(1-hydroxycyclopropanecarboxamido) thiophene-3-carboxamide] |  | 66.3 |  | 108
5 | NC(=O)c1cc(S(=O)(=O)c2ccc(F)cc2)sc1NC(=O)c1ccnnc1 [Compound 250, N-(3-carbamoyl-5-(4-fluorophenylsulfonyl)thiophen-2-yl) pyridazine-4-carboxamide] |  | > 1000 |  | 
6 | NC(=O)c1cc(S(=O)(=O)c2ccc(F)cc2)sc1NC(=O)C(O)C(F)(F)F (stereo not shown) [Compound 252, 5-(4-fluorophenylsulfonyl)-2-(3,3,3-trifluoro-2-hydroxypropanamido) thiophene-3-carboxamide] | 214 | 49.1 |  | 
7 | CC1CN(S(=O)(=O)c2cc(C(N)=O)c(NC(=O)c3ccccc3C(F)(F)F)s2)CC(C)O1 (stereo not shown) [Compound 258, 5-(2,6-dimethylmorpholinosulfonyl)-2-(2-(trifluoromethyl)benzamido) thiophene-3-carboxamide] |  | 102 |  | 157
8 | CC1COCC(C)N1S(=O)(=O)c1cc(C(N)=O)c(NC(=O)c2ccccc2C(F)(F)F)s1 (stereo not shown) [Compound 259, 5-(3,5-dimethylmorpholinosulfonyl)-2-(2-(trifluoromethyl)benzamido) thiophene-3-carboxamide] |  | 144 |  | 
9 | CC1(C)COCCN1S(=O)(=O)c1cc(C(N)=O)c(NC(=O)c2ccccc2C(F)(F)F)s1 [Compound 260, 5-(3,3-dimethylmorpholinosulfonyl)-2-(2-(trifluoromethyl)benzamido) thiophene-3-carboxamide] |  | 94.4 |  | 87.5
10 | COCCN(C1CC1)S(=O)(=O)c1cc(C(N)=O)c(NC(=O)c2ccccc2C(F)(F)F)s1 [Compound 261, 5-(N-cyclopropyl-N-(2-methoxyethyl)sulfamoyl)-2-(2-(trifluoromethyl)benzamido) thiophene-3-carboxamide] |  | 31.9 |  | 92.4
11 | CN(C1CC1)S(=O)(=O)c1cc(C(N)=O)c(NC(=O)c2ccccc2C(F)(F)F)s1 [Compound 262, 5-(N-cyclopropyl-N-methylsulfamoyl)-2-(2-(trifluoromethyl)benzamido) thiophene-3-carboxamide] |  | 69.1 |  | 115
12 | NC(=O)c1cc(S(=O)(=O)c2ccc(F)cc2)sc1NC(=O)c1ccc(F)cn1 [Compound 266, N-(3-carbamoyl-5-(4-fluorophenylsulfonyl)thiophen-2-yl)-5-fluoropicolinamide] |  | 197 |  | 
13 | NC(=O)c1cc(S(=O)(=O)c2ccc(F)cc2)sc1Nc1ccccn1 [Compound 267, 5-(4-fluorophenylsulfonyl)-2-(pyridin-2-ylamino) thiophene-3-carboxamide] |  | 653 |  | 
14 | COC(C)(C)C(=O)Nc1sc(S(=O)(=O)c2ccc(F)cc2)cc1C(N)=O [Compound 268, 5-(4-fluorophenylsulfonyl)-2-(2-methoxy-2-methylpropanamido) thiophene-3-carboxamide] |  | 195 |  | 
15 | CC(C)=CC(=O)Nc1sc(S(=O)(=O)c2ccc(F)cc2)cc1C(N)=O [Compound 274, 5-(4-fluorophenylsulfonyl)-2-(3-methylbut-2-enamido) thiophene-3-carboxamide] |  | 231 |  | 
16 | NC(=O)c1cc(S(=O)(=O)c2ccc(F)cc2)sc1NC(=O)C(O)(C(F)(F)F)C(F)(F)F [Compound 275, 5-(4-fluorophenylsulfonyl)-2-(3,3,3-trifluoro-2-hydroxy-2-(trifluoromethyl)propanamido) thiophene-3-carboxamide] | 1720 | 220 |  | 
17 | COCCOC(C)C(=O)Nc1sc(S(=O)(=O)c2ccc(F)cc2)cc1C(N)=O (stereo not shown) [Compound 276, 5-(4-fluorophenylsulfonyl)-2-(2-(2-methoxyethoxy)propanamido) thiophene-3-carboxamide] | 3330 | 777 |  | 
18 | NC(=O)c1cc(S(=O)(=O)c2ccc(F)cc2)sc1NC(=O)C1COCCO1 (stereo not shown) [Compound 277, N-(3-carbamoyl-5-(4-fluorophenylsulfonyl)thiophen-2-yl)-1,4-dioxane-2-carboxamide] | 3330 | 389 |  | 
19 | Cc1cccnc1S(=O)(=O)c1cc(C(N)=O)c(NC(=O)C(C)(C)O)s1 [Compound 278, 2-(2-hydroxy-2-methylpropanamido)-5-(3-methylpyridin-2-ylsulfonyl) thiophene-3-carboxamide] |  | 1400 | > 1000 | 
20 | COCCOc1cc(F)ccc1S(=O)(=O)c1cc(C(N)=O)c(NC(=O)C(C)(C)O)s1 [Compound 282, 5-(4-fluoro-2-(2-methoxyethoxy)phenylsulfonyl)-2-(2-hydroxy-2-methylpropanamido) thiophene-3-carboxamide] | 3330 | 157 |  | 
21 | Cn1ccnc1S(=O)(=O)c1cc(C(N)=O)c(NC(=O)C(C)(C)O)s1 [Compound 285, 2-(2-hydroxy-2-methylpropanamido)-5-(1-methyl-1H-imidazol-2-ylsulfonyl) thiophene-3-carboxamide] |  | > 1000 | > 1000 | 
22 | NC(=O)c1cc(S(=O)(=O)c2ccc(F)cc2)sc1NC(=O)C(O)CO (stereo not shown) [Compound 288, 2-(2,3-dihydroxypropanamido)-5-(4-fluorophenylsulfonyl) thiophene-3-carboxamide] |  | 2360 | > 1000 | 
23 | CC(=O)OC(C)(C)C(=O)Nc1sc(S(=O)(=O)c2ccccc2C(C)C)cc1C(N)=O [Compound 294, 1-(3-carbamoyl-5-(2-isopropylphenylsulfonyl)thiophen-2-ylamino)-2-methyl-1-oxopropan-2-yl acetate] | 1330 | 228 |  | 
24 | CC(C)(O)C(=O)Nc1sc(S(=O)(=O)c2cc(F)ccc2O)cc1C(N)=O [Compound 296, 5-(5-fluoro-2-hydroxyphenylsulfonyl)-2-(2-hydroxy-2-methylpropanamido) thiophene-3-carboxamide] |  | 727 | > 1000 | 
25 | Cc1ccc(S(=O)(=O)c2cc(C(N)=O)c(NC(=O)C(C)(C)O)s2)cn1 [Compound 297, 2-(2-Hydroxy-2-methyl-propionylamino)-5-(6-methyl-pyridine-3-sulfonyl)-thiophene-3-carboxylic acid amide] | 3330 | 367 |  | 
26 | Cc1cc(S(=O)(=O)c2cc(C(N)=O)c(NC(=O)C(C)(C)O)s2)ccn1 [Compound 299, 2-(2-Hydroxy-2-methyl-propionylamino)-5-(2-methyl-pyridine-4-sulfonyl)-thiophene-3-carboxylic acid amide] | 3330 | 915 |  | 
27 | COc1ccccc1S(=O)(=O)c1cc(C(N)=O)c(NC(=O)C(C)(C)O)s1 [Compound 301, 2-(2-hydroxy-2-methylpropanamido)-5-(2-methoxyphenylsulfonyl) thiophene-3-carboxamide] |  | 174 | > 1000 | 
28 | COCCN(C1CC1)S(=O)(=O)c1cc(C(N)=O)c(NC(=O)C(C)(C)O)s1 [Compound 306, 5-(N-cyclopropyl-N-(2-methoxyethyl)sulfamoyl)-2-(2-hydroxy-2-methylpropanamido) thiophene-3-carboxamide] |  | 254 | > 1000 | 
29 | CC(C)(O)C(=O)Nc1sc(S(=O)(=O)N2CCC(F)(F)CC2)cc1C(N)=O [Compound 308, 5-(4,4-difluoropiperidin-1-ylsulfonyl)-2-(2-hydroxy-2-methylpropanamido) thiophene-3-carboxamide] | 1030 | 234 |  | 
